Reference: ChEMBL document CHEMBL3875174, “Further investigation of Paprotrain: Towards the conception of selective and multi-targeted CNS kinase inhibitors” (Eur J Med Chem, 2016)

How the values were obtained:
[1] = Inhibition of porcine brain CK1 delta/epsilon using RRKHAAIGpSAYSITA as substrate incubated for 30 mins in presence of [gamma-33 P] ATP by liquid scintillation counting analysis; parameters: species or system Sus scrofa
[2] = biological target: Cyclin-dependent kinase 5/CDK5 activator 1 (Homo sapiens, UniProt Q00535); assay type: protein-complex assay
[3] = biological target: Glycogen synthase kinase-3 (Sus scrofa, UniProt B2LUN4+I6LNT8); experiment: Inhibition of porcine brain GSK3alpha/beta using GS-1 as substrate incubated for 30 mins in presence of [gamma-33 P] ATP by liquid scintillation counting analysis
[4] = biological target: Dual specificity tyrosine-phosphorylation-regulated kinase 1A (Homo sapiens, UniProt Q13627); experiment: Inhibition of GST-tagged human recombinant DYRK1A expressed in Escherichia coli using RS peptide as substrate incubated for 30 mins in presence of [gamma-33 P] ATP by liquid scintillation counting analysis
[5] = biological target: Dual specificity protein kinase CLK1 (Homo sapiens, UniProt P49759); experiment: Inhibition of GST-tagged human recombinant CLK1 expressed in Escherichia coli using RS peptide as substrate incubated for 30 mins in presence of [gamma-33 P] ATP by liquid scintillation counting analysis
[6] = biological target: Dual specificity tyrosine-phosphorylation-regulated kinase 1B (Homo sapiens, UniProt Q9Y463); experiment: Inhibition of GST-tagged human recombinant DYRK1B expressed in Escherichia coli using RS peptide as substrate incubated for 30 mins in presence of [gamma-33 P] ATP by liquid scintillation counting analysis
[7] = biological target: Dual specificity protein kinase CLK2 (Homo sapiens, UniProt P49760); experiment: Inhibition of GST-tagged human recombinant CLK2 expressed in Escherichia coli using RS peptide as substrate incubated for 30 mins in presence of [gamma-33 P] ATP by liquid scintillation counting analysis
[8] = biological target: Dual specificity protein kinase CLK3 (Homo sapiens, UniProt P49761); experiment: Inhibition of GST-tagged human recombinant CLK3 expressed in Escherichia coli using RS peptide as substrate incubated for 30 mins in presence of [gamma-33 P] ATP by liquid scintillation counting analysis
[9] = biological target: Dual specificity protein kinase CLK4 (Homo sapiens, UniProt Q9HAZ1); experiment: Inhibition of GST-tagged human recombinant CLK4 expressed in Escherichia coli using RS peptide as substrate incubated for 30 mins in presence of [gamma-33 P] ATP by liquid scintillation counting analysis
[10] = Cytotoxicity against human KB cells assessed as growth inhibition at 1 uM after 72 hrs by MTS assay; assay type: toxicity, cell-based; conditions: for inhibition at 72 h, 1 µM: KB cells, read-out: GI; for growth inhibition (GI): kb, 72 h, 1 µM

Dual specificity protein kinase CLK3, sequence (P49761 whole entry): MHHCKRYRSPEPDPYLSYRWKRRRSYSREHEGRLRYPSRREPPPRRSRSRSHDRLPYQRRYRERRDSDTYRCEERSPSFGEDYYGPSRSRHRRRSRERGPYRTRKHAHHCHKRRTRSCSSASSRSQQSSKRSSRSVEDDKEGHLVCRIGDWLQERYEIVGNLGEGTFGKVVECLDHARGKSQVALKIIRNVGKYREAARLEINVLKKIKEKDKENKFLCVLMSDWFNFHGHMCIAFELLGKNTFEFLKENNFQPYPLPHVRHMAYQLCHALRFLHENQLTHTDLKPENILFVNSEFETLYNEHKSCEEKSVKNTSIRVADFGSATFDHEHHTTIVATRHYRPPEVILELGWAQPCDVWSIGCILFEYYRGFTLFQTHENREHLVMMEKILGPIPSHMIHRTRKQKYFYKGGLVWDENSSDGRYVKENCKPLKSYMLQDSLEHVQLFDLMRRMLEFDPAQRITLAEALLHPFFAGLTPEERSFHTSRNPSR
Dual specificity protein kinase CLK2, sequence (P49760 whole entry): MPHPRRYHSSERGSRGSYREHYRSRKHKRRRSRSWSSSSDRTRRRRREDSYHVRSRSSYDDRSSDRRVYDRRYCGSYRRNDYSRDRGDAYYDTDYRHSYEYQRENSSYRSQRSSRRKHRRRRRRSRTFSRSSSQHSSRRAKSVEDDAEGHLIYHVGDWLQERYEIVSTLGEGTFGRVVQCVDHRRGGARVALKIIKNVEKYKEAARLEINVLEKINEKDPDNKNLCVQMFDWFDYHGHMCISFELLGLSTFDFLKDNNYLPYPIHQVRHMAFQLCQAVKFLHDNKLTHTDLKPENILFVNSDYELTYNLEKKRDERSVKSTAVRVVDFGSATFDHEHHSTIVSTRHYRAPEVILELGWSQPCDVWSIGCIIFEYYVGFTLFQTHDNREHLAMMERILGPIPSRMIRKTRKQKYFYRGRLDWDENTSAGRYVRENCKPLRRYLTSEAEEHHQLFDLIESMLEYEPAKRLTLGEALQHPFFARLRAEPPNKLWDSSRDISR
Dual specificity protein kinase CLK4, sequence (Q9HAZ1 whole entry): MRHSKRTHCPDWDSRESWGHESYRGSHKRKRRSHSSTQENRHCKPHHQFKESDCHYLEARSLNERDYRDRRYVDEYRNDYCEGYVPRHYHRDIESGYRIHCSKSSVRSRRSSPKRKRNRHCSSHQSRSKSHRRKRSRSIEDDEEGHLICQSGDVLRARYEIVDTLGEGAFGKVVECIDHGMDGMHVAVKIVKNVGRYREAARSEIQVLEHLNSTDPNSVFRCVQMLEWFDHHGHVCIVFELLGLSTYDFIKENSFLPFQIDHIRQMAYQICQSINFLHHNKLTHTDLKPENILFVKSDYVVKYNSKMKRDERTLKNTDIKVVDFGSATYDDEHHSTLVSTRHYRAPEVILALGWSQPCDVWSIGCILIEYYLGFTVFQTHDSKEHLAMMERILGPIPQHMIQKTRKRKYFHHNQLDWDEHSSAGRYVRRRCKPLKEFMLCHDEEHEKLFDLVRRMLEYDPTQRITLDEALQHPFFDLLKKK
Dual specificity protein kinase CLK1, sequence (P49759 whole entry): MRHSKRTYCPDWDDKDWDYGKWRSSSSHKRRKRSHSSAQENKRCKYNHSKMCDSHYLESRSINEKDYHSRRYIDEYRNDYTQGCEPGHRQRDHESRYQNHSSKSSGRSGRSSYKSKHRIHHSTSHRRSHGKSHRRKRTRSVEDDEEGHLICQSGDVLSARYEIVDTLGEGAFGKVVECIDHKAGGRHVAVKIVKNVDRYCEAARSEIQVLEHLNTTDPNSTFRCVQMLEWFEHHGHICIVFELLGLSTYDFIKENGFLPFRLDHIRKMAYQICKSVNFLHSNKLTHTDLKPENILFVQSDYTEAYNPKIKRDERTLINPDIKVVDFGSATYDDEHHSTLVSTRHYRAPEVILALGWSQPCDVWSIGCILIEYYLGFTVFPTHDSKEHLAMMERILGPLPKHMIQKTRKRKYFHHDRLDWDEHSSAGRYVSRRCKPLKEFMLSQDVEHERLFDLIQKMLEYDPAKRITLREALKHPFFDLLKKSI
Dual specificity tyrosine-phosphorylation-regulated kinase 1B, sequence (Q9Y463 whole entry): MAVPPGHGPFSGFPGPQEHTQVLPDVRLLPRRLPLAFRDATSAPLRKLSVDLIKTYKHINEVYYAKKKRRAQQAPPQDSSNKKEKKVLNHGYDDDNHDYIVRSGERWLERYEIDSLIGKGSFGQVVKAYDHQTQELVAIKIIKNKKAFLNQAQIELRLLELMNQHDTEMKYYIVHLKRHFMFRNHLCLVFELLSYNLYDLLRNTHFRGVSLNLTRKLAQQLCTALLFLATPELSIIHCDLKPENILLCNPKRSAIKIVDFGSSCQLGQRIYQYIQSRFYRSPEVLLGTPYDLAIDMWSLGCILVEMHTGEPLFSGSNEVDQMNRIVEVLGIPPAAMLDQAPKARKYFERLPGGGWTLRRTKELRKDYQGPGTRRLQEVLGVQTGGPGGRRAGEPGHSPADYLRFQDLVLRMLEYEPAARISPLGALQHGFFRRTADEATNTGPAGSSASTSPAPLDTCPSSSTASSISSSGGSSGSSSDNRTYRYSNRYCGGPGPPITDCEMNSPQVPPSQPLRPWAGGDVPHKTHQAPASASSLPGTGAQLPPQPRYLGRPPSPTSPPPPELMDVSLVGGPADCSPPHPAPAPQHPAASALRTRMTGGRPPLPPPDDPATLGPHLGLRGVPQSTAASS
Cyclin-dependent kinase 5/CDK5 activator 1, sequence (Q00535 whole entry): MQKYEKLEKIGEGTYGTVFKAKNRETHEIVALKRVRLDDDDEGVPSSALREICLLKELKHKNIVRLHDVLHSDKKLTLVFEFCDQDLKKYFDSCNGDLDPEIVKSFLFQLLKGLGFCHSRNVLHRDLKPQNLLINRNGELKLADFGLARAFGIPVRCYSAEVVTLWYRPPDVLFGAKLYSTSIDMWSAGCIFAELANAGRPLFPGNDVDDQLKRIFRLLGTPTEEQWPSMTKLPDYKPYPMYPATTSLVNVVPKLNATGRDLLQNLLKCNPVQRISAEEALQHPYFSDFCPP
Cyclin-dependent kinase 5/CDK5 activator 1, sequence (Q15078 whole entry, further chain): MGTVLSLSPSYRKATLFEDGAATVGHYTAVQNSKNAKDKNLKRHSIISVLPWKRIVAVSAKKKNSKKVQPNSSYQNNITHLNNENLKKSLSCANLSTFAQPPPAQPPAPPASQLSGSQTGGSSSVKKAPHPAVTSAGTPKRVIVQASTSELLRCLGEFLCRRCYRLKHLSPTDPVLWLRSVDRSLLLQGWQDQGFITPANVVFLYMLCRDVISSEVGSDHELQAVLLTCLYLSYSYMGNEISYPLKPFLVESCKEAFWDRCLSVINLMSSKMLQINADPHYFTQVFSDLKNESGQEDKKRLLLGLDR

Compound	IC50 [1] [nM]	IC50 [2] [nM]	IC50 [3] [nM]	IC50 [4] [nM]	IC50 [5] [nM]	IC50 [6] [nM]	IC50 [7] [nM]	IC50 [8] [nM]	IC50 [9] [nM]	inhibition at 72 h, 1 µM [10] [%]	growth inhibition (GI) [10]
COc1ccc2c(c1)[nH]c1c3ccncc3cc(C#N)c21	> 10000	440	680	25	23	34	80	190	33	64	–
COc1cccc2[nH]cc(/C(C#N)=C/c3cccnc3)c12	> 10000	> 10000	> 10000	6000	3000	–	–	–	–	–	–
N#C/C(=C/c1cccnc1)c1c[nH]c2ccccc12	–	> 10000	> 10000	> 10000	> 10000	–	–	–	–	–	–
N#Cc1cc2cccnc2c2[nH]c3ccccc3c12	–	> 10000	> 10000	> 10000	–	–	–	–	–	–	–
N#Cc1cc2cnccc2c2[nH]c3ccc(F)cc3c12	> 10000	> 10000	> 10000	310	230	300	610	> 10000	200	–	Non-Toxic
COc1ccc2c(n1)[nH]c1c3ccncc3cc(C#N)c21	> 10000	> 10000	> 10000	200	86	93	4600	> 10000	47	–	Non-Toxic
COc1ccc2c(/C(C#N)=C/c3cccnc3)c[nH]c2n1	> 10000	> 10000	> 10000	180	230	100	2300	> 10000	71	–	Non-Toxic
COc1ccc2c(c1)[nH]c1c(C)nccc12 [HARMINE]	1500	–	> 10000	–	–	–	–	–	–	–	–
N#Cc1cc2ncccc2c2[nH]c3ccccc3c12	> 10000	> 10000	> 10000	10000	> 10000	–	–	–	–	–	–
Nc1nc2ccccc2c2cc3cnccc3cc12	> 10000	> 10000	> 10000	> 10000	2100	–	–	–	–	–	–
COc1ccc2c(-c3ccncc3)c[nH]c2n1	> 10000	7000	> 10000	5800	430	220	3500	6100	110	–	Non-Toxic
N#C/C(=C\c1cccnc1)c1c[nH]c2ccc(F)cc12	> 10000	> 10000	> 10000	1800	1700	–	–	–	–	–	–
COc1cncc(/C=C(\C#N)c2c[nH]c3ccc(OC)cc23)c1	> 10000	> 10000	> 10000	> 10000	2300	–	–	–	–	–	–
COc1ccc2c(c1)[nH]c1c3ccncc3cc(CN(C)C)c21	> 10000	5400	> 10000	670	1400	–	–	–	–	37	–
N#Cc1cc2cnccc2c2[nH]c3ccc(Cl)cc3c12	> 10000	> 10000	> 10000	4000	> 10000	–	–	–	–	–	–
N#C/C(=C\c1ccncc1)c1c[nH]c2ccccc12	–	> 10000	> 10000	> 10000	–	–	–	–	–	–	–
N#C/C(=C\c1cccnc1)c1c[nH]c2ccccc12	–	> 10000	> 10000	5500	–	–	–	–	–	–	–
N#C/C(=C\c1cccnc1)c1c[nH]c2ncccc12	> 10000	130	720	21	16	240	4600	> 10000	47	29	–
N#Cc1cc2ccccc2c2[nH]c3ccccc3c12	> 10000	> 10000	> 10000	2300	1400	–	–	–	–	–	–
COc1ccc2[nH]cc3c2c1C(C)NC(c1cccnc1)=C3C#N (centres undefined)	> 10000	6400	> 10000	5000	> 10000	–	–	–	–	–	–
COc1ccc2[nH]cc(/C(C#N)=C(\N)c3cccnc3)c2c1	> 10000	> 10000	> 10000	> 10000	> 10000	–	–	–	–	–	–

Compound	IC50 [1] [nM]	IC50 [2] [nM]	IC50 [3] [nM]	IC50 [4] [nM]	IC50 [5] [nM]	IC50 [6] [nM]	IC50 [7] [nM]	IC50 [8] [nM]	IC50 [9] [nM]	inhibition at 72 h, 1 µM [10] [%]	growth inhibition (GI) [10]
COc1ccc2c(c1)[nH]c1c3ccncc3cc(C(N)=O)c21	> 10000	4500	9000	2000	1600	–	–	–	–	–	–
COc1cccc2c1[nH]c1c3ccncc3cc(C#N)c21	> 10000	460	2000	27	41	28	44	180	40	9	–
COc1ccc2[nH]c3c(=O)[nH]c(-c4cccnc4)c(C#N)c3c2c1	> 10000	> 10000	> 10000	4300	47	1100	610	> 10000	21	–	Non-Toxic
N#C/C(=C\c1ccccc1)c1c[nH]c2ccccc12	–	> 10000	> 10000	> 10000	–	–	–	–	–	–	–
COc1ccc2c(c1)[nH]c1c3c(OC)cncc3cc(C(N)=O)c21	> 10000	1600	> 10000	3300	1600	–	–	–	–	–	–
COc1ccc2[nH]cc(-c3cc4cnccc4cc3NC(C)=O)c2c1	> 10000	8000	> 10000	850	34	590	1100	7000	22	–	Non-Toxic
COc1ccc2c(CC#N)c(-c3ccncc3)[nH]c2n1	> 10000	> 10000	> 10000	7300	1100	–	–	–	–	–	–
COc1ccc2cc(-c3ccncc3)[nH]c2n1	> 10000	> 10000	> 10000	> 10000	2900	–	–	–	–	–	–
COc1ccc2[nH]cc(/C(C#N)=C/c3cccnc3)c2c1	–	> 10000	> 10000	6300	–	–	–	–	–	–	–
N#Cc1cc2ccncc2c2[nH]c3ccccc3c12	> 10000	6000	2400	370	170	260	1100	1800	180	3	–
COc1cccc2c1[nH]c1c3ccncc3cc(C(N)=O)c21	> 10000	9000	8800	600	570	460	3500	6100	110	–	Non-Toxic
COc1cccc2c(/C(C#N)=C/c3cccnc3)c[nH]c12	> 10000	> 10000	> 10000	1200	1500	–	–	–	–	–	–
N#Cc1cc2cnccc2c2[nH]c3ncccc3c12	> 10000	780	1800	440	160	160	400	6800	130	–	Non-Toxic
N#Cc1cc2ccccn2c2nc3ccccc3c1-2	> 10000	> 10000	> 10000	> 10000	> 10000	–	–	–	–	–	–
N#C/C(=C\c1cccnc1)c1c[nH]c2ccc(Cl)cc12	> 10000	> 10000	> 10000	3300	2000	–	–	–	–	–	–
N#C/C(=C\c1ccccn1)c1c[nH]c2ccccc12	–	> 10000	> 10000	> 10000	–	–	–	–	–	–	–
COc1ccc2[nH]c3c4c(OC)cncc4cc(C#N)c3c2c1	> 10000	930	4000	600	56	–	–	–	–	–	Non-Toxic
COc1ccc2[nH]cc(/C(C#N)=C/c3cnccc3C)c2c1	> 10000	> 10000	> 10000	5500	4000	–	–	–	–	–	–
N#Cc1cc2cnccc2c2[nH]c3ccccc3c12	–	800	1000	50	–	–	–	–	–	–	–
COc1ccc2c(/C(C#N)=C/c3cccnc3)c[nH]c2c1	> 10000	> 10000	> 10000	1600	1300	–	–	–	–	–	–
